Activity calls are given as the source filed them.
Tests used:
[1] = target: T1, fMet-Leu-Phe receptor (Homo sapiens, UniProt P21462); test: FPR ligands, dose response (AID 519); format: functional
T1 sequence (P21462 whole entry): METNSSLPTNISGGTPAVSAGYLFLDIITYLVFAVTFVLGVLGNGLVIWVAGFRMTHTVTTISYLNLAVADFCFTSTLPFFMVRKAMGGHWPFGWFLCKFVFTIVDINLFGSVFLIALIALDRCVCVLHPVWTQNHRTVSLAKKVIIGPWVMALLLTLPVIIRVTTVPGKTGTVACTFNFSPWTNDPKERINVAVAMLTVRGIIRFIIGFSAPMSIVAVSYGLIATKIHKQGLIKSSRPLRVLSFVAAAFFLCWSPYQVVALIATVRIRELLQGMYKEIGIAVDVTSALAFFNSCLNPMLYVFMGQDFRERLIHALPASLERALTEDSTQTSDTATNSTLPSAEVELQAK

[2] = A cytotoxicity screen of small molecule inhibitors of the PhoP region in Salmonella typhi identified in the primary screen. [Related pubchem assays: 1850, 1864, 1985 ]; format: functional
[3] = ZM109 Env clade C HIV-1 fusion inhibitors, dose response, HeLa effector, CEM target cells, luciferase, cherry-pick (AID 652058); format: functional, cell-based
[4] = inhibitors of clade B AD8 Env fusion, dose response, cell-based, cherry-pick (AID 652062); format: functional;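 also: luciferase signal from cell-cell fusion driven by HIV-1 clade B AD8 Env; potency is for inhibitors of fusion seen as a drop in luminescence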
[5] = inhibitors of HIV Env-driven cell fusion, dose response, cherry-pick (AID 652057); format: functional, cell-based
[6] = off-target signal loss in HeLa-CEM21 co-culture – HeLa F-luc CTL cells, cherry-picked, counter-screen for HIV-1 Env fusion inhibitor project, dose response (AID 652040); format: functional, cell-based;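 also: potency for signal decrease marking cytotoxic or nonspecific inhibition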
[7] = CEM21 lymphoblast cell cytotoxicity, dose response, cytotoxicity control for viral fusion inhibitor project, CellTiter-Glo luminescence, cherry-picked (AID 652042); format: functional, cell-based;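 also: potency for signal decrease meaning cytotoxicity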
[8] = target: T2, Caspase-6 (Homo sapiens, UniProt P55212); test: human caspase-6 inhibitors, dose response, biochemical, VEID-R110 fluorescence, cherry-pick (AID 720632)
T2 sequence (P55212 whole entry): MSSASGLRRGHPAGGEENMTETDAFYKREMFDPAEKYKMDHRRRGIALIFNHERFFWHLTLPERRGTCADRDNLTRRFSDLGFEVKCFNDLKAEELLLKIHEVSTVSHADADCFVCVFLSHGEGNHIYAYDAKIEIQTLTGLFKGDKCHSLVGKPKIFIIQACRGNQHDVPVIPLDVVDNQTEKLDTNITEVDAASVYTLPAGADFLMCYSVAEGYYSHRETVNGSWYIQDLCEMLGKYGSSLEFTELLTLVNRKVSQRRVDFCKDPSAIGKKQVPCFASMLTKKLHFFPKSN

[9] = target: T3, Sentrin-specific protease 8 (Homo sapiens, UniProt Q96LD8); format: functional
T3 sequence (Q96LD8 whole entry): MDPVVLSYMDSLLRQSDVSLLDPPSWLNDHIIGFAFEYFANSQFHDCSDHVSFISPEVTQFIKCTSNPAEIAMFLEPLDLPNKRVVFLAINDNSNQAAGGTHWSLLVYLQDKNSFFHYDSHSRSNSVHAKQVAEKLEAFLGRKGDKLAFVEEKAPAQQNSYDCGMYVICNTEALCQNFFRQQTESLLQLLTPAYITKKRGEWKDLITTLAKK

[10] = target: T3, Sentrin-specific protease 8; format: functional; remark: listed apart in the source
[11] = THP-1 cell cytotoxicity, dose response, cytotoxicity control for non-replicating M. tuberculosis project (AID 489025); format: functional
[12] = target: Peroxisome proliferator-activated receptor gamma/Nuclear receptor coactivator 3 (Homo sapiens, UniProt P37231); format: functional;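 also: agonist potency for raising coactivator recruitment to the receptor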
Sequence of Peroxisome proliferator-activated receptor gamma/Nuclear receptor coactivator 3 (P37231 whole entry): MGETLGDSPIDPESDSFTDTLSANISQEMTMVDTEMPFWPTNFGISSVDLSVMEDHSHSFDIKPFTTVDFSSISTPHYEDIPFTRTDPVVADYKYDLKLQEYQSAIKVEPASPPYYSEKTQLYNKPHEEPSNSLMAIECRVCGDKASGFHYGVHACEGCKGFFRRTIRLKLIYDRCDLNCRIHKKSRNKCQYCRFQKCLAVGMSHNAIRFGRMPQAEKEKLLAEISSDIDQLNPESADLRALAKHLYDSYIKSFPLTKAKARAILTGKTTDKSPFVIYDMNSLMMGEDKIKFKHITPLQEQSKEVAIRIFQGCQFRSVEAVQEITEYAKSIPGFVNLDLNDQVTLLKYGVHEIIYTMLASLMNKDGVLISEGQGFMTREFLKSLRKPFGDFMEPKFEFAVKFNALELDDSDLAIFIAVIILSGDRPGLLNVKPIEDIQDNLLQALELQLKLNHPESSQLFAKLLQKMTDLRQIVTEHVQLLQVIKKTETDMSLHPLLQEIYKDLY
Sequence of Peroxisome proliferator-activated receptor gamma/Nuclear receptor coactivator 3 (Q9Y6Q9 whole entry, further chain): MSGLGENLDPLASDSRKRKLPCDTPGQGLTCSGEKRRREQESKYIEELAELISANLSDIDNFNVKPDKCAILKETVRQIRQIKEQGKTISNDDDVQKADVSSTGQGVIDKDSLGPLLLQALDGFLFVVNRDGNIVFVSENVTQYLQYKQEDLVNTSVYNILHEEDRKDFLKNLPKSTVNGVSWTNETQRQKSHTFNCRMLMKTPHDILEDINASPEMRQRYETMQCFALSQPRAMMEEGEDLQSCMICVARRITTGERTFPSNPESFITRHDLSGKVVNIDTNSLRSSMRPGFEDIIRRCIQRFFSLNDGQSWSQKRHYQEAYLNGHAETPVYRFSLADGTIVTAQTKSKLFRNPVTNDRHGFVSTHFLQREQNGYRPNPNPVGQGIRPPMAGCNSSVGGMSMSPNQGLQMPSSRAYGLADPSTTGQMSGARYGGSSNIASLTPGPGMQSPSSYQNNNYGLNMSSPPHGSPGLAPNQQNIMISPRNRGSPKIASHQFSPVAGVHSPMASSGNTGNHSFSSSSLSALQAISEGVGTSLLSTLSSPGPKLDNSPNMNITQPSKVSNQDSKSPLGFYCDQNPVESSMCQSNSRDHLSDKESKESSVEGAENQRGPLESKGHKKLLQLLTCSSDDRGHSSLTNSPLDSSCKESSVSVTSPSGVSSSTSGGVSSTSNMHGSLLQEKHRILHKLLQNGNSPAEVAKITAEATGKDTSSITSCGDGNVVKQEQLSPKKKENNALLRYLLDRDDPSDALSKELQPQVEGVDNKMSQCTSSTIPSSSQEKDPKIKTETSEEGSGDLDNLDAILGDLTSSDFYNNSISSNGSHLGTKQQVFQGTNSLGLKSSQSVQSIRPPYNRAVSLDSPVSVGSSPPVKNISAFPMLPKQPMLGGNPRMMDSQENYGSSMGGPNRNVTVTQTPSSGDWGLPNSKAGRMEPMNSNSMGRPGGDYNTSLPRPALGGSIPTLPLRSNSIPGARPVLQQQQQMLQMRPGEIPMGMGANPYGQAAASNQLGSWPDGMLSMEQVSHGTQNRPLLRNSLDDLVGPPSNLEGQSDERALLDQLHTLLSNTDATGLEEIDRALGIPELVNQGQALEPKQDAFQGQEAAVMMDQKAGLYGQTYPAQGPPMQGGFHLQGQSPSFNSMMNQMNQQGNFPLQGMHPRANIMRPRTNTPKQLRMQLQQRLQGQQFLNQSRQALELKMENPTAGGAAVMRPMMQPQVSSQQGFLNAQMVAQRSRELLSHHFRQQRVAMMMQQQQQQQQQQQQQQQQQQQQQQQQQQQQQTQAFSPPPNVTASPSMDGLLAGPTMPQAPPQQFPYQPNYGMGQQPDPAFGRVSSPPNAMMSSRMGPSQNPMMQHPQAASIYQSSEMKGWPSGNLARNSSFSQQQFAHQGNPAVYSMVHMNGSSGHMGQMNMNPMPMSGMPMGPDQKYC

[13] = target: Peroxisome proliferator-activated receptor gamma/Nuclear receptor coactivator 2 (Homo sapiens, UniProt P37231); format: functional;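 also: agonist potency for raising coactivator recruitment to the receptor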
Sequence of Peroxisome proliferator-activated receptor gamma/Nuclear receptor coactivator 2 (P37231 whole entry): as the sequence (P37231 whole entry) above
Sequence of Peroxisome proliferator-activated receptor gamma/Nuclear receptor coactivator 2 (Q15596 whole entry, further chain): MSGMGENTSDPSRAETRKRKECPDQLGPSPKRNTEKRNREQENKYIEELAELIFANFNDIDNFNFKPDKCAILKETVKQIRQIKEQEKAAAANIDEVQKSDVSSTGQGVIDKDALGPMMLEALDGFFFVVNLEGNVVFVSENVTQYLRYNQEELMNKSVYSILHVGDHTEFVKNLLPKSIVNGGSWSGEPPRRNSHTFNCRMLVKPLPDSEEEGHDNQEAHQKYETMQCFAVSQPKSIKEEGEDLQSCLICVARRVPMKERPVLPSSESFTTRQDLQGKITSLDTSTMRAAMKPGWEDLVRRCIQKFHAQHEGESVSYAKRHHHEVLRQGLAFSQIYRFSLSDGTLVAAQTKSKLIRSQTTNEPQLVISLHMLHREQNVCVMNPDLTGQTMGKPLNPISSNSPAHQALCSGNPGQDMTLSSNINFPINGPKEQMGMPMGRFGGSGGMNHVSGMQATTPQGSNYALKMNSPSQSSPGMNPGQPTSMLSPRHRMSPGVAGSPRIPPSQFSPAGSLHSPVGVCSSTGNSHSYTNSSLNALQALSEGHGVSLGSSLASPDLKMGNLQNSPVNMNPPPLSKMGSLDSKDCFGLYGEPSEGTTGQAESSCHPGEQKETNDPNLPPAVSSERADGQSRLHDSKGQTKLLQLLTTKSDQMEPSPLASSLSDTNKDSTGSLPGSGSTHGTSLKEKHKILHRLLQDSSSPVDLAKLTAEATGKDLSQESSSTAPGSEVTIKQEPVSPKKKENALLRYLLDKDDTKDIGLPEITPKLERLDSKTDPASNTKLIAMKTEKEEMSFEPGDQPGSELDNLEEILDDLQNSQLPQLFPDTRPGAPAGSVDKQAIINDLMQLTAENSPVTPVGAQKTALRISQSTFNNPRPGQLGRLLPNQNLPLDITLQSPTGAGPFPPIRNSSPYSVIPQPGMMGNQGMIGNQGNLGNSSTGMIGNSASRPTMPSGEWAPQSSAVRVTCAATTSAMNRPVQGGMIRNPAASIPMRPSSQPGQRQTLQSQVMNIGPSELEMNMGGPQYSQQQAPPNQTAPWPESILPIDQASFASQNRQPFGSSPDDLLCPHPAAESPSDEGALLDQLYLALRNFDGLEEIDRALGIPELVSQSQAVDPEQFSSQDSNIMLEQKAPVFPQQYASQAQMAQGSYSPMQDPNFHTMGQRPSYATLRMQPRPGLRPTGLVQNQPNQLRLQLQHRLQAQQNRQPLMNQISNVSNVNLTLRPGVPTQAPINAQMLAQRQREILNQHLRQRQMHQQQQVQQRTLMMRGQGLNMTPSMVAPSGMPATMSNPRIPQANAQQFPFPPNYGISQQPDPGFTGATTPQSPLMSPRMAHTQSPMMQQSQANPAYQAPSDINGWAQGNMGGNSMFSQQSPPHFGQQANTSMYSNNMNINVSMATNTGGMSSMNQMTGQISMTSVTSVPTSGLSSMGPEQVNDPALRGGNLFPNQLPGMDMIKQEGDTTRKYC

[14] = target: Peroxisome proliferator-activated receptor gamma/Nuclear receptor coactivator 1 (Homo sapiens, UniProt P37231); format: functional;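 also: agonist potency as compounds enhance coactivator SRC-1 recruitment to PPARgamma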
[15] = cells; format: functional
[16] = target: Dual specificity tyrosine-phosphorylation-regulated kinase 1A (Rattus norvegicus, UniProt Q63470); format: biochemical, Homo sapiens
[17] = cells; format: functional, cell-based
[18] = C. albicans growth with fluconazole, confirmation, fluorescence, retest (AID 2467); format: functional, cell-based
[19] = target: T4, Nuclear receptor subfamily 0 group B member 1 (Homo sapiens, UniProt P51843); format: functional, cell-based;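 also: HEK293T cells transfected with SF-1 and DAX-1 plus StAR promoter luciferase reporter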
T4 sequence (P51843 whole entry): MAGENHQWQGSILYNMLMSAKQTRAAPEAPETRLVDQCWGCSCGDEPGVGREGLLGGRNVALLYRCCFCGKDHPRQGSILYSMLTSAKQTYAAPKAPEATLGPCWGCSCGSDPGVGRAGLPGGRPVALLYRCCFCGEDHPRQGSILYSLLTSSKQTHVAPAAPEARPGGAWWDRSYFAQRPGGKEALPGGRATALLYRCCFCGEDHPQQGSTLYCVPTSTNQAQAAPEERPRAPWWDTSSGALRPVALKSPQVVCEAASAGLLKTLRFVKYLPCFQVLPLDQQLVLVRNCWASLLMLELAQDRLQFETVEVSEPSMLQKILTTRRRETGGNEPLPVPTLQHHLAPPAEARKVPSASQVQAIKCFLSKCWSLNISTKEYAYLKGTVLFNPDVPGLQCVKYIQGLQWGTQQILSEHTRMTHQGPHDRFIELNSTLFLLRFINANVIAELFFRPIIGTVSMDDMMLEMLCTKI

[20] = NIH-3T3 fibroblast cytotoxicity, dose response, cytotoxicity control, cell-based, fluorescence, Alamar Blue, secondary assay (AID 2327); format: functional;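 also: NIH-3T3 mouse fibroblasts cultured with fluconazole at 8 µg/mL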
[21] = P. falciparum Dd2 growth inhibitors, dose response, SYBR Green, cherry-picked samples (AID 1159567); format: functional, cell-based
[22] = P. falciparum ATP4 D1247Y mutant growth inhibitors, dose response, NITD609-resistant line, SYBR Green, dry powder (AID 1159571); format: functional, cell-based;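 also: parasites synchronized at ring stage by sorbitol before testing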
[23] = P. falciparum 3D7-ScDHODH growth inhibitors, dose response, SYBR Green, dry powder samples (AID 1159570); format: functional, cell-based;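 also: parasite growth measured after 72 hours of compound exposure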
[24] = P. falciparum Dd2 growth inhibitors, dose response, SYBR Green, dry powder samples (AID 1159566); format: functional, cell-based;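 also: potency for growth inhibition with lower SYBR green DNA signal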
[25] = tested on: HEK293; test: cells; conditions: Homo sapiens
[26] = tested on: HEK293; test: cells; conditions: Homo sapiens; remark: listed apart in the source
[27] = target: Induced myeloid leukemia cell differentiation protein Mcl-1 (Homo sapiens, UniProt Q07820); format: functional
Sequence of Induced myeloid leukemia cell differentiation protein Mcl-1 (Q07820 whole entry): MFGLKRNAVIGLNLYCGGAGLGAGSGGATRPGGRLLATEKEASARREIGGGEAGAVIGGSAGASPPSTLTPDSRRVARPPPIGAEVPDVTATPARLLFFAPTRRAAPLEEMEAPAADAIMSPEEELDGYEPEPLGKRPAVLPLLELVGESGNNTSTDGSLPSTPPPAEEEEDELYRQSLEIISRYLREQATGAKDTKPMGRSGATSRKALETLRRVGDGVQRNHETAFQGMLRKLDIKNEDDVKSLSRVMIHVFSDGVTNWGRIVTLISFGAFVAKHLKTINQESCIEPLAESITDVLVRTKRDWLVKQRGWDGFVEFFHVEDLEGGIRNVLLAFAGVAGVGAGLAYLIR

[28] = target: Trypsin (Sus scrofa, UniProt P00761); test: porcine trypsin inhibitors, dose response, selectivity assay for Rce1 protease inhibitor project, biochemical, quenched peptide fluorescence, cherry-pick (AID 488789)
Sequence of Trypsin (P00761 whole entry): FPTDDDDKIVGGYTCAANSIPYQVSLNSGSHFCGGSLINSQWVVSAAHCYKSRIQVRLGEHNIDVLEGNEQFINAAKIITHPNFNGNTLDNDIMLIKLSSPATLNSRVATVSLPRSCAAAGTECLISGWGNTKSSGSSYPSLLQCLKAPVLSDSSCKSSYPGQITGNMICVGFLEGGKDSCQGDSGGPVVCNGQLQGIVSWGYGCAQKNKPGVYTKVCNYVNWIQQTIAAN

[29] = target: T5, Cytochrome P450 1A2 (Homo sapiens, UniProt P05177);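 also: PubChem cytochrome P450 panel assay, CYP1A2 panel member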
T5 sequence (P05177 whole entry): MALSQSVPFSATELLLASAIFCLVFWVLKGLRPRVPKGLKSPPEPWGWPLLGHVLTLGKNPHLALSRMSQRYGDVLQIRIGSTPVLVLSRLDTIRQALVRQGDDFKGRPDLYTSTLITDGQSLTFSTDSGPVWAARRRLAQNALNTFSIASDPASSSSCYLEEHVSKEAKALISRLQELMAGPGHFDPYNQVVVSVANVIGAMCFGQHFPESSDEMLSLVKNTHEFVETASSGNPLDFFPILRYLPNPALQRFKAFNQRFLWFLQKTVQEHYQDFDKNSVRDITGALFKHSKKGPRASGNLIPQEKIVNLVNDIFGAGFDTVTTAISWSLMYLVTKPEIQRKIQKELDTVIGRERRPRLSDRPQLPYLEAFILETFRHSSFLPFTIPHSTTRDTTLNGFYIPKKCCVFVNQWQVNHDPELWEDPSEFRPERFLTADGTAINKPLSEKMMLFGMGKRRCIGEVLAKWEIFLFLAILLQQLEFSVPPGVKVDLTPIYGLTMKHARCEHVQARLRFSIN

[30] = inhibitors of intracellular T. cruzi replication, confirmation, NIH3T3 host cells, beta-gal luminescence (AID 2044); format: functional, cell-based;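 also: intracellular parasites grown in NIH/3T3 mouse fibroblasts as host cells; luminescent beta-galactosidase reporter signal from transgenic T. cruzi replicating inside host cells; inhibitors lower the luminescence signal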
[31] = cytotoxicity toward NIH3T3 fibroblasts, dose response, counter-screen, cell-based, ATP luminescence, mouse fibroblasts (AID 2010); format: functional;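 also: cells exposed to compound for about 90 hours before reading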
[32] = Luminescence Cell-Based Dose Confirmation HTS to Identify Inhibitors of Platelet Dense Granule Release. [Related pubchem assays: 1663 (Primary HTS), 1678 (Summary of Project)]; format: functional
[33] = target: Luciferin 4-monooxygenase (Photinus pyralis, UniProt P08659); test: firefly luciferase enzyme inhibitors, dose response, biochemical, luminescence (AID 1891)
Sequence of Luciferin 4-monooxygenase (P08659 whole entry): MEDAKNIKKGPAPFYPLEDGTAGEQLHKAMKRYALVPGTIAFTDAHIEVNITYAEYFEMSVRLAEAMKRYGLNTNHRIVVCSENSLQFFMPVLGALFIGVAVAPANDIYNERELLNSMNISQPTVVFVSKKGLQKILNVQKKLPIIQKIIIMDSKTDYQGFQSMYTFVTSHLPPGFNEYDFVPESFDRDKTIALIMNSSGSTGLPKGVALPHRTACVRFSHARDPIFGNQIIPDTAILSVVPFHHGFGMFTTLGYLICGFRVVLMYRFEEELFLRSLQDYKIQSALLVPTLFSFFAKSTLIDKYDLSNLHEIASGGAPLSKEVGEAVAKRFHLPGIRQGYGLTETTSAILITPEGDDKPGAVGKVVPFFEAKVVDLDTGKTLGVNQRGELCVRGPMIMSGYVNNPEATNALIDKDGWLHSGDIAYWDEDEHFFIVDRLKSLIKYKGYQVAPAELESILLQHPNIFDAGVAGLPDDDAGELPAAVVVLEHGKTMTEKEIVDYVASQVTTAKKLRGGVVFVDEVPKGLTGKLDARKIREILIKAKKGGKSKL

SMILES: COCCN1C(=O)C(O)=C(C(=O)c2cccs2)C1c1ccccc1 (stereo not drawn)
- Ki [1]: > 66.7 µM (inactive)

SMILES: CC[N+](C)(CC)CCC[n+]1c(-c2ccccc2)c2cc(N)ccc2c2ccc(N)cc21 [PROPIDIUM]
- EC50 [2]: > 50 µM (active)

SMILES: CC(=O)c1c(C)[nH]c(C(=O)OCC(=O)NCC(C)C)c1C
- EC50 [2]: > 50 µM (active)

SMILES: CCN(CC(O)c1cccc(O)c1)C(=O)C12CC3CC(CC(C3)C1)C2 (stereo not drawn)
- AC50 [3]: 0.415 µM (active)
- AC50 [4]: 3 µM (active)
- AC50 [5]: 0.33 µM (active)
- AC50 [6]: 0.619 µM (active)
- AC50 [7]: 46.4 µM (active)

SMILES: O=C(COC(=O)c1ccc([N+](=O)[O-])o1)NC1CCS(=O)(=O)C1 (stereo not drawn)
- AC50 [8]: 39.7 µM (active)
- IC50 [9]: 8.96 µM (active)
- IC50 [10]: 9.9 µM (active)

SMILES: CCOC(=O)COc1ccc(/C=C2\NC(=S)N(CC)C2=O)cc1
- CC50 [11]: > 40 µM (active)
- EC50 [12]: > 79.4 µM (not active)
- EC50 [13]: > 79.4 µM (not active)
- EC50 [14]: > 79.4 µM (not active)
- IC50 [15]: 3.34 µM (active)

SMILES: O=C(O)C1Oc2cc3ccccc3cc2O1
- AC50 [8]: 8.44 µM (active)

SMILES: COc1ccc(S(=O)(=O)N2CCCCC2)cc1NC(=O)Cc1sc(C)nc1-c1ccc(F)cc1
- AC50 [3]: 2.59 µM (active)
- AC50 [4]: 6.25 µM (active)
- AC50 [5]: 0.863 µM (active)
- AC50 [6]: 2.18 µM (active)

SMILES: c1ccc2sc(NN=C3CCCCCC3)nc2c1
- AC50 [16]: 3.89 µM (active)
- IC50 [17]: > 67.5 µM (inactive)
- EC50 [18]: > 38 µM (not active)
- IC50 [19]: > 0.278 µM (active)
- EC50 [20]: > 150 µM (inactive)

SMILES: O=C(Nc1ccccc1F)N1CCCCN2[C@H](CO)[C@H](c3ccc(C#Cc4cccnc4)cc3)[C@@H]2C1
- AC50 [21]: 0.86 µM (active)
- AC50 [22]: 0.504 µM (active)
- AC50 [23]: 0.452 µM (active)
- AC50 [24]: 0.507 µM (active)

SMILES: Cc1cccc(N2CCN(C(=O)C3CCN(c4nnc(-n5cccc5)s4)CC3)CC2C)c1 (stereo not drawn)
- EC50 [2]: > 50 µM (active)

SMILES: COc1cccc(Nc2nc(C(N)CCc3ccccc3)cs2)n1 (stereo not drawn)
- EC50 [25]: > 59.6 µM (inactive)
- AC50 [3]: 3.98 µM (active)
- EC50 [26]: > 59.6 µM (inactive)
- AC50 [4]: 3.36 µM (active)
- AC50 [5]: 1.96 µM (active)
- AC50 [6]: 3.37 µM (active)
- AC50 [7]: 17.1 µM (active)

SMILES: N=c1oc2cc(O)ccc2cc1C(=O)Nc1nc2ccccc2s1
- IC50 [27]: 3.21 µM (active)
- AC50 [28]: 12.4 µM (active)

SMILES: CCCCNC(=O)CSc1nc2ccccc2c(=O)n1Cc1ccc2c(c1)OCO2
- EC50 [12]: > 79.4 µM (not active)
- EC50 [13]: > 79.4 µM (not active)
- EC50 [14]: > 79.4 µM (not active)

SMILES: N[C@@H](Cc1ccc(O)c(I)c1)C(=O)O [IOTYROSINE]
- Ki [1]: > 66.7 µM (inactive)

SMILES: COc1cccc(OC)c1/C(O)=C(\C#N)c1nc2ccccc2[nH]1
- Ki [1]: > 66.7 µM (inactive)
- AC50 [29]: 12.6 µM (inconclusive)

SMILES: CN1CCC(OC(=O)c2ccc(Cl)cc2Cl)CC1
- EC50 [30]: 0.127 µM (active)
- EC50 [31]: > 60 µM (not active)
- EC50 [2]: > 50 µM (active)

SMILES: O=C(/C=C\Nc1ccc2c(c1)OCO2)c1cccs1
- IC50 [17]: > 67.5 µM (inactive)
- EC50 [32]: 6.14 µM (active)
- IC50 [19]: > 67.5 µM (inactive)
- EC50 [33]: 0.912 µM (active)

SMILES: O=C1Cc2ccccc2C(=O)N1Cc1cccc(Cl)c1
- AC50 [8]: 13 µM (active)
- IC50 [9]: 0.528 µM (active)
- IC50 [10]: > 100 µM (inactive)

SMILES: Brc1ccc(/C=N/c2ccc(Nc3ccccc3)cc2)s1
- EC50 [12]: > 79.4 µM (not active)
- EC50 [13]: > 79.4 µM (not active)
- EC50 [14]: > 79.4 µM (not active)

SMILES: O=C(CCS(=O)(=O)c1ccccc1)N(CCCN1CCOCC1)c1nc2ccc(F)cc2s1
- EC50 [30]: 2.06 µM (active)
- EC50 [31]: 6.18 µM (active)
- IC50 [17]: > 67.5 µM (inactive)
- IC50 [19]: > 67.5 µM (inactive)

From ChEMBL document CHEMBL1201862, “PubChem BioAssay data set” (2004)
